Laboratory results taken from PubChem BioAssay AID256 (DTP/NCI, 2004).
Inconclusive results and toxic doses are left out. How the source made its calls: active means survival T/C of 150% or more; inactive means T/C below 125% in these data.

Tested on: CD2F1 mice, L1210 leukemia ip, survival T/C
Experiment: NCI In Vivo Anticancer Drug Screen. Data for tumor model L1210 Leukemia (intraperitoneal) in CD2F1 (CDF1) mice
Details: endpoint: mean survival time, higher = longer survival
Summary of the method: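 Antitumor effect is scored in animals hosting a serially transplanted tumor. Values compare compound-dosed animals against vehicle-only controls as a simple quotient.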

[1] = dose: 25.0 mg/kg/injection, schedule: Q01DX009 (ip), vehicle: saline with Tween-80
[2] = dose: 50.0 mg/kg/injection, schedule: Q01DX009 (ip), vehicle: saline with Tween-80
[3] = dose: 100.0 mg/kg/injection, schedule: Q01DX009 (ip), vehicle: saline with Tween-80
[4] = dose: 100.0 mg/kg/injection, schedule: Q04DX003 (ip), vehicle: saline with Tween-80
[5] = dose: 200.0 mg/kg/injection, schedule: Q04DX003 (ip), vehicle: saline with Tween-80
[6] = dose: 400.0 mg/kg/injection, schedule: Q04DX003 (ip), vehicle: saline with Tween-80
[7] = dose: 200.0 mg/kg/injection, schedule: Q01DX009 (ip), vehicle: saline with Tween-80

Measured: T/C

Br/C=C(\Br)C[N+]12CN3CN(CN(C3)C1)C2
inactive: [1] 107 % of control | [2] 105 % of control | [3] 104 % of control

O=C(O)c1cccc(C(=O)O)c1
inactive: [4] 95 % of control | [5] 102 % of control | [6] 102 % of control

COC(=O)C(NC(=O)Cc1ccccc1)C(C)(C)S (stereo unspecified)
inactive: dose: 100.0 mg/kg/injection, schedule: Q04DX002 (ip), vehicle: saline with Tween-80 102 % of control | dose: 200.0 mg/kg/injection, schedule: Q04DX002 (ip), vehicle: saline with Tween-80 102 % of control | dose: 400.0 mg/kg/injection, schedule: Q04DX002 (ip), vehicle: saline with Tween-80 102 % of control

Cn1cnc2c(SCc3ccccc3)ncnc21
inactive: [4] 104 % of control | dose: 132.0 mg/kg/injection, schedule: Q04DX003 (ip), vehicle: saline with Tween-80 118 % of control | [5] 102 % of control | dose: 300.0 mg/kg/injection, schedule: Q04DX003 (ip), vehicle: saline with Tween-80 119 % of control

Cc1[nH]c(=O)c(C(=O)O)c(C)c1[N+](=O)[O-]
inactive: [4] 96 % of control | [5] 94 % of control | [6] 96 % of control

O=c1nc2n(CCO)c3ccccc3cc-2c(=O)[nH]1
inactive: dose: 100.0 mg/kg/injection, schedule: Q01DX001 (ip), vehicle: saline 95 % of control | dose: 200.0 mg/kg/injection, schedule: Q01DX001 (ip), vehicle: saline 95 % of control | dose: 400.0 mg/kg/injection, schedule: Q01DX001 (ip), vehicle: saline 89 % of control

OCC1OC(OC2C(CO)OC(Sc3ccccc3)C(O)C2O)C(O)C(O)C1O (stereo unspecified)
inactive: [4] 97 % of control | dose: 100.0 mg/kg/injection, schedule: Q04DX003 (ip), vehicle: saline 103 % of control | [5] 95 % of control | dose: 200.0 mg/kg/injection, schedule: Q04DX003 (ip), vehicle: saline 103 % of control | [6] 97 % of control | dose: 400.0 mg/kg/injection, schedule: Q04DX003 (ip), vehicle: saline 95 % of control

O=C(c1ccccc1Br)C(Br)C(Br)c1ccccc1 (stereo unspecified)
inactive: [4] 103 % of control | [5] 111 % of control | [6] 100 % of control

CCC[CH2][Sn]1([CH2]CCC)[O]OC(C)(CC)[O]1 (stereo unspecified)
inactive: dose: 0.78 mg/kg/injection, schedule: Q01DX009 (ip), vehicle: saline with Tween-80 95 % of control | dose: 1.56 mg/kg/injection, schedule: Q01DX009 (ip), vehicle: saline with Tween-80 110 % of control | dose: 3.13 mg/kg/injection, schedule: Q01DX009 (ip), vehicle: saline with Tween-80 112 % of control

CSc1ccc(NC(=O)CCl)cc1
inactive: [4] 91 % of control

CC(=O)C(C(C)=O)C(c1cccnc1)C(C(C)=O)C(C)=O
inactive: dose: 100.0 mg/kg/injection, schedule: Q01DX001 (ip), vehicle: saline with Tween-80 104 % of control | dose: 200.0 mg/kg/injection, schedule: Q01DX001 (ip), vehicle: saline with Tween-80 107 % of control | dose: 400.0 mg/kg/injection, schedule: Q01DX001 (ip), vehicle: saline with Tween-80 98 % of control

COc1ccc(C(O)c2ccccc2C(=O)Nc2ccccc2)cc1 (stereo unspecified)
inactive: [4] 93 % of control | [5] 92 % of control | [6] 88 % of control

O=C1OC(=O)C2C1C1CCC2C1(c1ccccc1)c1ccccc1 (stereo unspecified)
inactive: [4] 97 % of control | [5] 97 % of control | [6] 97 % of control

COc1cc(C(C)(C)C)cc(OC)c1C(O)(c1c(OC)cc(C(C)(C)C)cc1OC)c1c(OC)cc(C(C)(C)C)cc1OC
inactive: dose: 6.25 mg/kg/injection, schedule: Q01DX009 (ip), vehicle: saline with Tween-80 100 % of control | dose: 12.5 mg/kg/injection, schedule: Q01DX009 (ip), vehicle: saline with Tween-80 104 % of control | [1] 104 % of control | [2] 102 % of control | [3] 105 % of control | [7] 88 % of control

O=c1[nH]c2ccccc2c2ccccc12
inactive: [3] 98 % of control | [7] 90 % of control | dose: 400.0 mg/kg/injection, schedule: Q01DX009 (ip), vehicle: saline with Tween-80 102 % of control

O=C(CBr)CC(O)(C(F)(F)F)C(F)(F)F
inactive: dose: 12.5 mg/kg/injection, schedule: Q04DX003 (ip), vehicle: saline 98 % of control
